From ChEMBL document CHEMBL4699406, “Reversing binding sensitivity to A147T translocator protein” (RSC Med Chem, 2020)
Active and inactive are the calls of the source. No cut-off for these calls is given here.

How the values were obtained:
Homo sapiens = organism: Homo sapiens; assay: Selectivity index, ratio of Ki for human TSPO A147T mutant expressed in HEK293 cell membranes to Ki for human TSPO expressed in HEK293 cell membranes; type: cell-based
Translocator protein = Translocator protein (Homo sapiens, UniProt P30536); assay: Displacement of [3H]PK11195 from wild-type human TSPO expressed in HEK293 cell membranes after 90 mins by scintillation counting method; set-up: species or system Cell membrane
Translocator protein, sequence (P30536 whole entry): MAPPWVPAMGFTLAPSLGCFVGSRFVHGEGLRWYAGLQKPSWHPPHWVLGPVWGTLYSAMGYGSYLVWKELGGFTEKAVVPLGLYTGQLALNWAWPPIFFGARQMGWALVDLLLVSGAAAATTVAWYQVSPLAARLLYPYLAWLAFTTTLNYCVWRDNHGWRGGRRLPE

Row | SMILES | Ratio Ki (Homo sapiens) | Ki (Translocator protein) [nM]
1 | CCN(CC)C(=O)c1nc2ccccc2n1Cc1ccc(OC)cc1 | > 3.3 | 3060
2 | CCN(CC)C(=O)CN(Cc1ccc(OC(C)C)cc1)c1cc(C)cc(C)c1 | > 4.5 | 2240
3 | CC(=O)N(Cc1ccccc1)c1cc(C)cc(C)c1 | 4.6 | 275
4 | CCN(CC)C(=O)CN(Cc1ccc(OC)cc1)c1cc(C)cc(C)c1 | 3.5 | 1200
5 | C#CCN(C)C(=O)c1cc2cc(NC(C)=O)ccc2n1Cc1ccc(OC)cc1 | 1.4 | 2070
6 | CCN(CC)C(=O)CN(Cc1ccccc1)c1cc(C)cc(C)c1 | 4.2 | 1010
7 | CCN(CC)C(=O)CN(Cc1ccc(OCCF)cc1)c1cc(C)cc(C)c1 | > 7.7 | 1290
8 | CCN(CC)C(=O)c1nc2ccccc2n1Cc1ccc(Cl)cc1 | < 0.3 | > 10000
9 | CN(Cc1ccccc1)C(=O)c1nc2ccccc2n1Cc1ccc(Cl)cc1 | inactive | > 10000
10 | COc1ccc(CN(C(C)=O)c2cc(C)cc(C)c2)cc1 | 5.6 | 500
11 | C#CCN(C)C(=O)c1nc2ccccc2n1Cc1ccc(OC)cc1 | > 3 | 3280
12 | C#CCN(C)C(=O)c1cc2cc(NS(C)(=O)=O)ccc2n1Cc1ccc(OC)cc1 | 0.5 | 1500
13 | CCN(CC)C(=O)Cn1c(-c2ccc(OC)cc2)nc2c(C)cc(C)cc21 | 4.2 | 208
14 | CCN(CC)C(=O)c1cc2cc(C)ccc2n1Cc1ccc(OCc2ccccc2)cc1 | inactive | > 10000
15 | CCN(CC)C(=O)Cn1c(-c2ccc(OC)cc2)cc2c(C)cc(C)cc21 | 5.7 | 114
16 | CC(=O)N(Cc1ccc(OCc2ccccc2)cc1)c1cc(C)cc(C)c1 | 2 | 377
17 | CCN(CC)C(=O)c1nc2ccccc2n1Cc1ccccc1 | inactive | > 10000
18 | C#CCN(C)C(=O)c1cc2cc(C)ccc2n1Cc1ccc(OC)nc1 | 0.1 | > 10000
19 | CCN(CC)C(=O)c1cc2cc(C)ccc2n1Cc1cn[nH]n1 | inactive | > 10000
20 | CC(=O)N(Cc1ccc(OC(C)C)cc1)c1cc(C)cc(C)c1 | 3.8 | 823
21 | CC(=O)N(Cc1ccc(OCCF)cc1)c1cc(C)cc(C)c1 | 14.3 | 275
22 | CCN(CC)C(=O)c1nc2ccccc2n1Cc1ccc(OC)nc1 | inactive | > 10000
23 | C#CCN(C)C(=O)c1nc2ccccc2n1Cc1ccc(Cl)cc1 | inactive | > 10000
24 | CCN(CC)C(=O)c1cc2cc(C)ccc2n1Cc1ccc(O)cc1 | inactive | > 10000
25 | CCN(CC)C(=O)CN(Cc1ccc(OCc2ccccc2)cc1)c1cc(C)cc(C)c1 | 4.2 | 433
